Test results reported in paper PMC11721293 (JCI Insight, 2025).
Values joined by “and” are separate entries in the source; they are usually repeats but may differ in a detail not shown here. Equal entries are not always repeated. Where two headings read alike, the source gives them in different places.

What was measured:
[1] = system: SARS-CoV-2 spike protein–mediated cell-cell fusion (B.1.1.7); type: cell-based; conditions: 48 h
[2] = system: SARS-CoV-2 spike protein–mediated cell-cell fusion (B.1.315); type: cell-based; conditions: B.1.315 (printed), 48 h
[3] = system: SARS-CoV-2 spike protein–mediated cell-cell fusion (B.1.617); type: cell-based; conditions: 48 h
SARS-CoV-2 = type: cell-based; conditions: for percentage replication relative to untreated, infected control: LNF 10 μM
SARS-CoV-2 viral entry = type: cell-based; conditions: for viral entry signal relative to DMSO (sheet 4D): individual replicates, DMSO about 1
SARS-CoV-2 replicon = test: microbe, parasite or virus in culture; type: cell-based
SARS-CoV-2 RDPs = test: microbe, parasite or virus in culture; type: cell-based; conditions: for EC50: Huh7.5 ACE-TMPRSS2, Gluc RDPs, 24 h
viral RdRp = viral RdRp (Severe acute respiratory syndrome coronavirus 2, UniProt P0DTD1); test: In vitro RdRp activity assay (RNA extension); type: biochemical, SARS-CoV-2; conditions: LNF 0.1, 1 and 10 μM; TEMPOL 100 μM
[4] = system: SARS-CoV-2 strain USA-WA1/2020; type: in vivo, mouse
[5] = system: SARS-CoV-2 strain USA-WA1/2020; type: in vivo, mouse; remark: listed apart in the source
SARS-CoV-2-WA = type: in vivo, mouse; conditions: 50 MPK oral gavage twice daily; day 2
in vitro [6] = conditions: human
in vitro [7] = conditions: human; remark: listed apart in the source
in vitro [8] = conditions: human; remark: listed apart in the source
in vitro [9] = conditions: human; remark: listed apart in the source
[10] = Fifty MPK twice daily; cited from earlier work
lysosomal compartment = test: LysoTracker staining of VeroTA6 cells
Procedure: (A) VeroTA6 cells were seeded
post treatment, the cells were stained with lysotracker (Thermofisher, L7528) and visualized under
the microscope (left). The fluorescence intensity was captured and quantified for each treatment
B), the significance was calculated using one-way ANOVA with Dunnett’s test with multiple
comparison to the DMSO control, and the P values are depicted as ns for P>0.05, ** for P <0.01,

[11] = Severe acute respiratory syndrome coronavirus 2, Huh7.5, 24 h

NC(=O)N1CCC(CC(=O)N2CCC([C@H]3c4ncc(Br)cc4CCc4cc(Cl)cc(Br)c43)CC2)CC1 [LNF, lonafarnib]
relative luciferase signals ([1]; Conc-mM 3 (printed)): 59.768 and 61.4378 and 52.374 and 53.9099
relative luciferase signals ([1]; Conc-mM 10 (printed)): 35.1915 and 32.9108 and 27.2582 and 33.268
relative luciferase signals ([2]; Conc-mM 0.3 (printed)): 107.391 and 104.235 and 80.412 and 106.736
relative luciferase signals ([2]; Conc-mM 1 (printed)): 99.0641 and 83.1761 and 82.6205 and 92.2492
relative luciferase signals ([2]; Conc-mM 3 (printed)): 65.2189 and 57.2378 and 55.5623 and 61.7046
relative luciferase signals ([2]; Conc-mM 10 (printed)): 36.5792 and 34.1792 and 24.08 and 33.4344
relative luciferase signals ([3]; Conc-mM 0.3 (printed)): 89.139 and 98.5081 and 88.3035 and 100.955
relative luciferase signals ([3]; Conc-mM 1 (printed)): 86.0359 and 78.2183 and 102.626 and 94.5695
relative luciferase signals ([3]; Conc-mM 3 (printed)): 65.1493 and 69.6847 and 66.5219 and 76.0103
relative luciferase signals ([3]; Conc-mM 10 (printed)): 35.8018 and 38.2651 and 35.7143 and 29.2527
time-of-addition result (SARS-CoV-2): high efficacy of LNF even if the drug was added 4–24 hours after infection
effect on early events of viral infection (SARS-CoV-2; Calu3, 10 μM): little or no effect on the early events of viral infection
effect when drug present during an initial period of viral infection (SARS-CoV-2; VeroE6, 10 μM): 50%
percentage replication relative to untreated, infected control (SARS-CoV-2; VeroE6, drug present (0,4) h): 51.9274% and 49.1443% and 50.2213% and 50.0245% and 32.7935% and 31.4407% and 36.9633% and 35.1922%
percentage replication relative to untreated, infected control (SARS-CoV-2; VeroE6, drug present (0,24) h): 1.998% and 1.949% and 1.813% and 1.81% and 1.891% and 1.817% and 1.711% and 1.724%
percentage replication relative to untreated, infected control (SARS-CoV-2; VeroE6, drug present (2,4) h): 73.914% and 71.0289% and 54.3207% and 56.213% and 71.519% and 69.7874% and 67.1461% and 65.4707%
percentage replication relative to untreated, infected control (SARS-CoV-2; VeroE6, drug present (2,24) h): 3.962% and 4.023% and 3.69% and 3.889% and 3.6% and 3.5757% and 3.292% and 3.351%
percentage replication relative to untreated, infected control (SARS-CoV-2; VeroE6, drug present (4,24) h): 4.215% and 4.26% and 5.337% and 5.659% and 5.734% and 5.806% and 3.6315% and 3.627%
percentage replication relative to untreated, infected control (SARS-CoV-2; VeroE6, drug present (-2,0) h): 98.397% and 97.5913% and 93.062% and 94.6733% and 95.1896% and 94.1548% and 95.9294% and 95.558%
percentage replication relative to untreated, infected control (SARS-CoV-2; VeroE6, drug present (-2,2) h): 55.8703% and 55.9821% and 50.6506% and 51.7567% and 51.3569% and 50.1515% and 51.6639% and 51.979%
percentage replication relative to untreated, infected control (SARS-CoV-2; VeroE6, drug present (-2,4) h): 43.6671% and 43.2347% and 41.1828% and 42.7136% and 40.9571% and 40.8036% and 42.923% and 42.3078%
percentage replication relative to untreated, infected control (SARS-CoV-2; VeroE6, drug present (-2,24) h): 1.731% and 1.694% and 2.365% and 2.435% and 2.361% and 2.315% and 1.913% and 1.91%
inhibition of viral entry (SARS-CoV-2 viral entry): inhibited viral entry
viral entry signal relative to DMSO (sheet 4D) (SARS-CoV-2 viral entry; TA6 cells): 0.282 and 0.3105 and 0.4405 and 0.3405 and 0.2054 and 0.2625 and 0.3109 and 0.2607 and 0.1876
viral entry signal relative to DMSO (sheet 4D) (SARS-CoV-2 viral entry; VeroE6 cells): 0.1605 and 0.1408 and 0.1008 and 0.1281 and 0.213 and 0.1543 and 0.08537 and 0.09496 and 0.1294
EC50 (SARS-CoV-2 replicon): 7.8 µM
Inhibition (SARS-CoV-2 replicon): 99.8867
Inhibition (SARS-CoV-2 replicon; Log[LNF} mM 1): 58.6507 and 68.927 and 62.2766 and 74.1393
EC50 (SARS-CoV-2 replicon; [11]): 7.88 µM
EC50 (SARS-CoV-2 RDPs): 10.4 µM
Inhibition (SARS-CoV-2 RDPs; Log[LNF} mM 1): 53.2589 and 40.1773 and 43.3748 and 43.6359
EC50 (SARS-CoV-2 RDPs; [11]): 10.5 µM
polymerase activity, primer extension (viral RdRp): not affected
Clinical Score ([4]; Day 5, individual animals): 1 (3×) and 0 (7×)
composite clinical score ([4]; LNF 40 MPK IP, RDV 25 MPK SC, twice daily): much improved disease parameters
Histopathology Score ([5]; Day 2, individual animals): 2 (2×) and 1 and 0.5 and 1.5 (3×) and 0 (3×)
Histopathology Score ([5]; Day 5, individual animals): 0.5 (3×) and 1 (4×) and 2.5 and 1.5 and 0
lung histopathology score vs vehicle ([5]; day 5): significantly lower histopathology score
lung viral titer (SARS-CoV-2-WA): significantly lower viral titers in the lung
CC50 (in vitro [6]): > 30 µM
CC50 (in vitro [7]): > 30 µM
CC50 (in vitro [8]): > 30 µM
CC50 (in vitro [9]): > 30 µM
toxicity in preclinical mouse studies [10]: without any toxicity
LysoTracker fluorescence intensity (lysosomal compartment; VeroTA6, 10 μM, 30 min): significantly higher fluorescence intensity
Lysotracker (lysosomal compartment; sheet S5A, individual measurements): 1000.41 and 1078.15 and 1357.74 and 1025.55 and 1236.53 and 1375.69 and 1111.13 and 939.183 and 1788.26 and 2301.51 and 898.567 and 730.339 and 642.99 and 1893.93 and 696.429 and 1937.99 and 1199.36 and 1178.39 and 1146.54 and 1719.14 and 1470.88 and 572.253 and 1006.33
